From US20220241369A1, “COMPOSITIONS AND METHODS OF MODULATING INFLAMMATION” (La Jolla Institute for Allergy and Immunology, priority 2018, published 2022)
“Also recorded” adds a separate entry of the source.

Tests used:
[1] = tested on: CMT-93 murine intestinal epithelial cells; assay: HRF secretion into culture supernatant, western blot, CMT-93; type: cell-based, mouse; settings: stimulated overnight, 20 or 100 ng/ml
Method: (§1) FIGS. 4A-4C show HRF is secreted by various cells. CMT-93 murine intestinal epithelial cells (FIG. 4A) and NIH/3T3 murine fibroblasts (FIG. 4B) and Raw264.7 murine macrophages (FIG. 4C) were stimulated overnight with low (20 ng/ml) and high (100 ng/mL) concentrations of various cytokines. HRF secreted into culture supernatants was detected by western blotting. Med and US denote medium only and supernatant from unstimulated cells, respectively. −DTT and +DTT indicate SDS gels were run under non-reducing and reducing conditions, respectively. Gel portions of containing the 23 kDa HRF monomer are shown except that a larger portion of the non-reducing gel is shown in panel C. Arrow indicates the position of HRF dimer, which disappeared under reducing conditions.
(§2) The following cell lines were cultured in DMEM plus 10% FCS except for U-937 cells which were cultured in RPMI1640 plus 10% FCS: CMT-93 mouse and Caco-2 (with 20% FCS) human intestinal epithelial cell lines; NIH/3T3 mouse fibroblast line; Raw 264.7 mouse and U-937 human macrophage lines; BEAS-2B human bronchial epithelial cell line; 293T human embryonic kidney cell line (obtained from ATCC, Manassas, Va., except for NIH/3T3, which was provided by S. A. Aaronson, NIH). Fibroblast-like stromal cells were cultured from small intestines of BALB/c mice in DMEM/10% FBS. CD4^+ T and B cells were purified from mouse spleens using BD IMag™ Mouse CD4 and B cells enrichment set-DM. Low-density bone-marrow cells were cultured in the presence of 100 ng/ml of stem cell factor (PeproTech) and 100 ng/ml of FLT-3 ligand (R&D Systems) for 4 days, and with 10 ng/mL of IL-5 (R&D Systems) thereafter for 10 days to obtain bone marrow-derived eosinophils (44). Bone marrow cells were cultured in the presence of 20 ng/ml of GM-CSF for 6 days and adherent cells were collected as bone marrow-derived macrophages. Non-adherent cells were further cultured with 5 ng/ml GM-CSF and the non-adherent cells were collected as bone marrow-derived dendritic cells. […]

[2] = tested on: Raw264.7 murine macrophages; assay: HRF secretion into culture supernatant, western blot, macrophages; type: cell-based, mouse; settings: stimulated overnight, 20 or 100 ng/ml
Method: as §1, §2

[3] = tested on: BEAS-2B human bronchial epithelial cells; assay: HRF secretion, western blot, BEAS-2B; type: cell-based; settings: combination of HDM and cytokine, 24 h
Text: As lung epithelial cells are exposed to the environment, HRF secretion was studied using BEAS-2B human bronchial epithelial cells. A small amount of HRF was secreted constitutively, but house dust mite allergens induced the secretion of high-molecular-weight HRF species (HMW-HRFs). Various cytokines including epithelial derived cytokines as well as Th2 cytokines and proinflammatory cytokines further enhanced HDM-induced secretion of HMW-HRFs.
Cultured cells were scraped and treated with adenosine and ATP, which should be abundantly present in inflammatory or injured tissues. These conditions induced secretion of HRF monomer, dimer and HMW-HRFs like stimulation with HDM plus cytokines.
Culture supernatants were analyzed by SDS-PAGE under nonreducing (−DTT) and reducing (+DTT) conditions, followed by western blotting for HRF probing. HDM-induced HRF secretion was enhanced not only by Th2 cytokines (IL-4, IL-5, and IL-13), but also by epithelial derived cytokines (IL-25, IL-33, and TSLP) and proinflammatory cytokines (IL-1beta, IL-6 and TNF). med, medium alone; US, unstimulated; HDM, house dust mite; CR, cockroach; RW, ragweed; Af, Aspergillus fumigatus. Arrowhead, HRF monomer.

[4] = tested on: OVA-induced food allergy (allergic diarrhea); assay: IgE-mediated experimental food allergy, i.g. pretreatment with HRF inhibitor before each OVA challenge; type: in vivo, mouse
Method: FIGS. 1A-1I show GST-N19 inhibits the development of diarrhea and intestinal mastocytosis in murine food allergy. Mice were i.p. sensitized with OVA ([…]) plus alum on days 0 and 14. From day 28, mice were i.g. challenged with OVA (50 mg) three times a week. Sensitized mice were either non-pretreated (−) or i.g. pretreated with 100 μg of GST or GST-N19 (N19). (FIG. 1A) Procedure scheme. (FIG. 1B) The development of diarrhea was monitored for 90 min after each OVA challenge. (n=5 for non-sensitized group, n=3 for inhibitor non-pretreated group, n=4 for GST group, n=6 for N19 group, data are representative of at least 3 independent experiments) Log-rank test: p=0.028 (GST vs. GST-N19), p=0.036 (control vs. GST-N19). […] (FIG. 1C-FIG. 1E) Total IgE, IgG1, HRF, and HRF-reactive IgE and IgG in sera were measured by ELISA. (FIG. 1F) Serum mMCP-1 was also measured by ELISA. (FIG. 1G) Sections of jejunum were stained with chloroacetate esterase to identify mast cells. Sections indicated by rectangles are enlarged in lower rows. Bar=100 μm in large pictures and 50 μm in insets. (FIG. 1H) Flow cytometry was performed to enumerate MMC9s (Lin^−c-Kit^+ST2^+IL-17RB^−Integrin β7^lo) in jejunum. (n=14 for non-sensitized group, n=15 for inhibitor non-pretreated group, n=9 for GST group, n=9 for GST-N19 group, pooled data of 3 independent experiments) (FIG. 1I) Cytokine mRNAs in jejunum were quantified by qRT-PCR. *, **: p<0.05, p<0.01 by ANOVA with Tukey's multiple comparison.
Mice were i.p. sensitized with OVA (50 μg/mouse) plus alum on days 0 and 14. From day 28, mice were i.g. challenged with OVA (25 or 50 mg) or PBS (control) three times a week. Before each challenge, mice were starved for 3 h, then i.g. pretreated with GST, GST-N19 (100 μg/mouse), synthetic N19 peptide, or HRF-2CA. The development of diarrhea was monitored for 90 min after OVA challenge. Diarrhea severity (30) was based on states of stool: solid (score 0), funicular (score 1), slurry (score 2), and watery (score 3).
For histologic analysis, jejunal tissue was fixed in 10% formalin. Mast cells in jejunal sections were detected by chloroacetate esterase staining. IgE, IgG, IgG1, IgG2a, mMCP-1, HRF, HRF-reactive IgE, and HRF-reactive IgG 24 h after the last OVA challenge were measured by ELISA (see Supplemental Information). Cytokine mRNAs in jejunum were quantified by qRT-PCR.
Twenty-four hours after the last OVA challenge, mice were sacrificed and small intestines (0.5-15 cm from stomach) were collected. The intestinal tissues were opened longitudinally and washed with HBSS. The washed tissues were incubated with 5 mM EDTA-HBSS for 30 min at 4° C., transferred to 30 ml HBSS in 50 ml tubes, and vigorously shaken to remove intestinal epithelial cells. The tissues were then washed with 10 ml of 10% FCS RPMI medium. Tissues were cut into tiny pieces and incubated with 2.4 mg/ml Collagenase D and 0.2 mg/ml DNase for 30 min at 37° C. Then cells were washed, resuspended in 44% Percoll solution, and slowly loaded on the top of 67% Percoll solution. The cells were centrifuged (1800 rpm, 20 min) and lymphocyte fractions were collected and used for detection of MMC9s (Lin^−c-Kit^+ST2^+IL-17RB^−Integrin β7^lo).
The cells were first incubated with 2.4G2 for 15 min at 4° C. and further incubated with Abs (PE-anti-07 integrin mAb (clone FIB504), PerCP/Cy5.5-anti-CD4 mAb (clone RM4-5), PerCP/Cy5.5-anti-CD8 mAb (clone 53-6.7), PerCP/Cy5.5-anti-CD11b mAb (clone M1/70), PerCP/Cy5.5-anti-CD11c mAb (clone N418), PerCP/Cy5.5-anti-B220 mAb (RA3-6B2), PerCP/Cy5.5-anti-Ly-6G/Ly-6C mAb (clone RB6-8C5), PerCP/Cy5.5-anti-CD335 mAb (clone 29A1.4), AlexaFluor647-anti-IL-17RB (clone 9B10), APC/Cy7-anti-CD117 (clone 2B8), Biotin-anti-ST2 (clone DIH9)) (Biolegend) for 30 min at 4° C. After washed, the cells were incubated with SA-BV421 (Biolegend) for 30 min at 4° C. MMC9 population was identified using FACS Canto. Data were analyzed using FlowJo software.

[5] = tested on: sensitization phase of murine food allergy; assay: Pretreatment with HRF inhibitor before sensitization with OVA plus alum; type: in vivo, mouse; settings: 100 μg i.g. one day before i.p. immunization on days 0 and 14
Method: Mice were i.g. pretreated with 100 μg of GST, GST-N19, HRF-2CA or PBS (OVA) one day before i.p. immunization with OVA plus alum on days 0 and 14. From day 28, mice were i.g. challenged with OVA three times a week. (FIG. 9A) Procedure scheme. (FIG. 9B) The development of diarrhea was monitored after OVA challenge. (n=5 for OVA, n=4 for GST, n=5 for N19, n=5 for 2CA, and n=3 each for unsensitized pretreated groups (not shown)). (FIG. 9C, FIG. 9D) Total IgE and IgG1 were measured by ELISA.
Whether HRF inhibitors affect the sensitization phase of food allergy was tested.

[6] = tested on: IgE+ mMCP-1+ mast cells; assay: Localization of gavaged HRF inhibitors in jejunum by confocal microscopy; type: in vivo, mouse
Method: HRF multimers in the jejunum of non-sensitized/OVA challenged (Cont, n=6) or OVA-sensitized/OVA-challenged (OVA, n=5) mice were quantified by a newly developed ELISA (FIG. 3A, FIG. 3C). HRF was also measured by ELISA (FIG. 3B). HRF dimer and monomer were quantified by western blotting in control (Cont) and food allergic mice treated without (OVA) or with GST (GST) or GST-N19 (N19) (n=5 for each group) (FIG. 3D). Allergic diarrhea was induced by 6 challenges. On the day of 7th challenge, the mice were gavaged with 0.1 mg of GST or GST-N19 (FIG. 3E). One hour later, mice were sacrificed without OVA challenge. Jejunum tissues were stained for GST, IgE, and mMCP-1 before confocal microscopy (n=5 for GST and n=6 for GST-N19). Arrows indicate cells positive for GST or GST-N19 as well as IgE and mMCP-1. […] Bars=50 μm.
Jejunum biopsy was fixed in 4% paraformaldehyde at 4° C., washed in 10-20% sucrose in phosphate buffered saline, and embedded in O.C.T. compound (Sakura Finetek, Japan). Cyrosections were made in 6 μm and blocked with 2% skim milk. Immunostaining was performed with anti-HRF (rabbit polyclonal FL-172), anti-GST (rabbit polyclonal Z-5) (Santa Cruz Biotechnology), anti-IgE (clone RME-1 from Biolegend and clone R35-72 from BD Biosciences), anti-mMCP1 (Catalog #AF5146, R&D Systems), anti-CD45 (clone 30-F11), anti-CD63 (clone NVG-2) (Biolegend), and anti-Siglec F (clone E50-2440, BD Biosciences) as primary antibodies, and anti-Rabbit Alexa Fluor 647 (Catalog #A21245), anti-Rat Alexa Fluor 568 (Catalog #A11077), and anti-Sheep Alexa Fluor 555 (Catalog #A11015) (Thermo Fisher Scientific) as secondary antibodies. Coverslips were mounted with Prolong Gold with DAPI (Thermo Fisher Scientific) and fluorescence was observed under Leica TCS SP2 confocal microscopy (Leica) and Nuance Multi spectral Imaging System (PerkinElmer).
Applicant next tested whether HRF inhibitors target mucosal mast cells. To this end, mice with allergic diarrhea were i.g. gavaged with GST-N19 or GST, and their location was identified 1 h after their gavage.

[7] = target: anti-TNP IgE C38-2; assay: cell-based or functional assay
[8] = sensitized mice pretreated i.g. with 100 μg before each OVA challenge

IL-13: Th2 cytokine
HRF secretion [1]: strongly induced
HRF dimer ([2]; non-reducing gel): increased
HDM-induced HRF secretion [3]: enhanced

IL-6: proinflammatory cytokine
HRF secretion [1]: strongly induced
secretion of HRF monomer [2]: increased
HDM-induced HRF secretion [3]: enhanced

GST-N19: GST-tagged N-terminal 19 amino acids of HRF; HRF inhibitor
serum mMCP-1 level ([4]; i.g. pretreatment before each OVA challenge, ELISA): reduced
number of mucosal mast cells in jejunum (intestinal mastocytosis) ([4]; i.g. pretreatment before each OVA challenge, chloroacetate esterase staining): inhibits; also recorded: reduced
MMC9s in jejunum ([4]; i.g. pretreatment, flow cytometry): reduced
Th2 cytokine mRNAs (Il4 and Il13) in jejunum ([4]; i.g. pretreatment, qRT-PCR): repressed
levels of total IgE, IgG1, IgG2a or HRF-reactive IgE and IgG ([4]; i.g. pretreatment, serum ELISA): not reduced
diarrhea occurrence / incidence [4, 8]: inhibits; also recorded: reduced
onset of diarrhea [4, 8]: delayed
sensitization phase of murine food allergy [5]: do not affect
targeting of mast cells in jejunum ([6]; after i.g. gavage): preferentially targets
IgE+ mMCP-1+ mast cells co-localized with the substance ([6]; mice with allergic diarrhea, 1 h after i.g. gavage of 0.1 mg, anti-GST staining): about 65%

B1: recombinant dimeric murine HRF (HRF-His6, Sephacryl fraction Fr1) (ligand)
chain: MIIYRDLISHDELFSDIYKIREIADGLCLEVEGKMVSRTEGAIDDSLIGGNASAEGPEGEGTESTVVTGVDIVMNHHLQETSFTKEAYKKYIKDYMKSLKGKLEEQKPERVKPFMTGAAEQIKHILANFNNYQFFIGENMNPDGMVALLDYREDGVTPFMIFFKDGLEMEKCHHHHHH
modifications: disulfide bond Cys172-Cys172 between the two monomers
EC50 of antigen TNP3-BSA for IL-13 release from C38-2-sensitized mouse BMMCs in the presence of 25 µg/ml mHRF dimer (156 ng/ml for 0 µg/ml mHRF dimer) [7]: 124 ng/mL
EC50 of antigen TNP3-BSA for IL-13 release from C38-2-sensitized mouse BMMCs in the presence of 50 µg/ml mHRF dimer (156 ng/ml for 0 µg/ml mHRF dimer) [7]: 92 ng/mL
